Reference: ChEMBL document CHEMBL1201862, “PubChem BioAssay data set” (2004)
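All cell lines were grown in 96-well plates and treated with compound for 48 hours. Abbreviation: GI50, concentration required for 50% inhibition of growth.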 Calls of active or inactive are those of the source. No stated cut-off is given here; in the data, active = GI50 up to about 1.1 µM and inactive = higher.

What was measured:
Assay in all cases: NCI-60 cell line screen, 48 h
SK-MEL-28 = system: SK-MEL-28
ACHN = system: ACHN
SK-MEL-5 = system: SK-MEL-5
SR = system: SR
HL-60 = system: HL-60
A549 = system: A549
HCT-116 = system: HCT-116
SK-MEL-2 = system: SK-MEL-2
OVCAR-4 = system: OVCAR-4
SK-OV-3 = system: SK-OV-3
UACC-257 = system: UACC-257
SF-268 = system: SF-268
HCC 2998 = system: HCC 2998
DU-145 = system: DU-145
A498 = system: A498
RPMI-8226 = system: RPMI-8226
PC-3 = system: PC-3
CCRF-CEM = system: CCRF-CEM
SNB-75 = system: SNB-75
M14 = system: M14
SN12C = system: SN12C
MOLT-4 = system: MOLT-4
SF-539 = system: SF-539
BT-549 = system: BT-549
IGROV-1 = system: IGROV-1
T47D = system: T47D
OVCAR-8 = system: OVCAR-8
786-0 = system: 786-0
OVCAR-3 = system: OVCAR-3
Malme-3M = system: Malme-3M
SW-620 = system: SW-620
NCI-H460 = system: NCI-H460
KM12 = system: KM12
SF-295 = system: SF-295
EKVX = system: EKVX
NCI-H226 = system: NCI-H226
Hs-578T = system: Hs-578T
HOP-92 = system: HOP-92
RXF 393 = system: RXF 393
U-251 = system: U-251
MCF7 = system: MCF7
UO-31 = system: UO-31
HOP-62 = system: HOP-62
HT-29 = system: HT-29
NCI-H522 = system: NCI-H522
K562 = system: K562
SNB-19 = system: SNB-19
MDA-MB-231 = system: MDA-MB-231
UACC-62 = system: UACC-62
TK-10 = system: TK-10
COLO 205 = system: COLO 205
NCI-H23 = system: NCI-H23
LOX IMVI = system: LOX IMVI
CAKI-1 = system: CAKI-1
NCI/ADR-RES = system: NCI/ADR-RES
MDA-N = system: MDA-N
MDA-MB-435 = system: MDA-MB-435
OVCAR-5 = system: OVCAR-5
HCT-15 = system: HCT-15
M19-MEL = system: M19-MEL
DMS-114 = system: DMS-114
LXFL 529 = system: LXFL 529
SNB-78 = system: SNB-78
KM-20L2 = system: KM-20L2
DMS-273 = system: DMS-273
DLD-1 = system: DLD-1

SMILES: C=CCN(CCNS(=O)(=O)c1ccc(C)cc1)S(=O)(=O)c1ccc(C)cc1
- GI50 (SK-MEL-28): > 91.4 µM (inactive)
- GI50 (ACHN): 13.6 µM (inactive)
- GI50 (SK-MEL-5): 6.17 µM (inactive)
- GI50 (SR): > 100 µM (inactive)
- GI50 (HL-60): 21.9 µM (inactive)
- GI50 (A549): 13.9 µM (inactive)
- GI50 (HCT-116): 34.2 µM (inactive)
- GI50 (SK-MEL-2): 34 µM (inactive)
- GI50 (OVCAR-4): 12.2 µM (inactive)
- GI50 (SK-OV-3): 12.9 µM (inactive)
- GI50 (UACC-257): 8.02 µM (inactive)
- GI50 (SF-268): 10.4 µM (inactive)
- GI50 (HCC 2998): > 69.5 µM (inactive)
- GI50 (DU-145): 54.6 µM (inactive)
- GI50 (A498): 6.07 µM (inactive)
- GI50 (RPMI-8226): 24.6 µM (inactive)
- GI50 (PC-3): > 48 µM (inactive)
- GI50 (CCRF-CEM): > 55 µM (inactive)
- GI50 (SNB-75): 15.1 µM (inactive)
- GI50 (M14): 14 µM (inactive)
- GI50 (SN12C): > 72.6 µM (inactive)
- GI50 (MOLT-4): > 45.7 µM (inactive)
- GI50 (SF-539): 75.9 µM (inactive)
- GI50 (BT-549): 22.4 µM (inactive)
- GI50 (IGROV-1): 76.2 µM (inactive)
- GI50 (T47D): > 51.1 µM (inactive)
- GI50 (OVCAR-8): 17.3 µM (inactive)
- GI50 (786-0): 61.8 µM (inactive)
- GI50 (OVCAR-3): 19 µM (inactive)
- GI50 (Malme-3M): 36.1 µM (inactive)
- GI50 (SW-620): > 82.2 µM (inactive)
- GI50 (NCI-H460): 9.46 µM (inactive)
- GI50 (KM12): 57.8 µM (inactive)
- GI50 (SF-295): 14 µM (inactive)
- GI50 (EKVX): 31.9 µM (inactive)
- GI50 (NCI-H226): > 71.3 µM (inactive)
- GI50 (Hs-578T): > 52.4 µM (inactive)
- GI50 (HOP-92): > 69.3 µM (inactive)
- GI50 (RXF 393): > 67.6 µM (inactive)
- GI50 (U-251): > 49.5 µM (inactive)
- GI50 (MCF7): > 51.9 µM (inactive)
- GI50 (UO-31): > 50.2 µM (inactive)
- GI50 (HOP-62): 27.9 µM (inactive)
- GI50 (HT-29): 9.77 µM (inactive)
- GI50 (NCI-H522): 12.9 µM (inactive)
- GI50 (K562): > 54.1 µM (inactive)
- GI50 (SNB-19): > 76.6 µM (inactive)
- GI50 (MDA-MB-231): > 100 µM (inactive)
- GI50 (UACC-62): 73.6 µM (inactive)
- GI50 (TK-10): > 55.2 µM (inactive)
- GI50 (COLO 205): > 44.5 µM (inactive)
- GI50 (NCI-H23): > 50.1 µM (inactive)
- GI50 (LOX IMVI): 17.3 µM (inactive)
- GI50 (CAKI-1): 87.9 µM (inactive)
- GI50 (NCI/ADR-RES): > 60.5 µM (inactive)
- GI50 (MDA-N): 46.3 µM (inactive)
- GI50 (MDA-MB-435): > 57.9 µM (inactive)
- GI50 (OVCAR-5): 58.2 µM (inactive)
- GI50 (HCT-15): > 55.5 µM

SMILES: COc1cc2ccc1NC(=O)N1CCN(CC1)C(=O)Nc1ccc(cc1OC)-c1ccc(c(OC)c1)NC(=O)N1CCN(CC1)C(=O)Nc1ccc-2cc1OC
- GI50 (SK-MEL-28): > 100 µM (inactive)
- GI50 (ACHN): > 100 µM (inactive)
- GI50 (SR): > 100 µM (inactive)
- GI50 (M19-MEL): > 100 µM (inactive)
- GI50 (HCT-116): > 100 µM (inactive)
- GI50 (SK-MEL-2): > 100 µM (inactive)
- GI50 (OVCAR-4): > 100 µM (inactive)
- GI50 (DMS-114): > 100 µM (inactive)
- GI50 (SK-OV-3): > 100 µM (inactive)
- GI50 (UACC-257): > 100 µM (inactive)
- GI50 (SF-268): > 100 µM (inactive)
- GI50 (HCC 2998): > 100 µM (inactive)
- GI50 (A498): > 100 µM (inactive)
- GI50 (RPMI-8226): > 100 µM (inactive)
- GI50 (CCRF-CEM): > 100 µM (inactive)
- GI50 (SNB-75): > 100 µM (inactive)
- GI50 (M14): > 100 µM (inactive)
- GI50 (MOLT-4): > 100 µM (inactive)
- GI50 (SF-539): > 100 µM (inactive)
- GI50 (IGROV-1): > 100 µM (inactive)
- GI50 (OVCAR-3): > 100 µM (inactive)
- GI50 (LXFL 529): > 100 µM (inactive)
- GI50 (NCI-H460): > 100 µM (inactive)
- GI50 (KM12): > 100 µM (inactive)
- GI50 (SF-295): > 100 µM (inactive)
- GI50 (HOP-92): > 100 µM (inactive)
- GI50 (RXF 393): > 100 µM (inactive)
- GI50 (UO-31): > 100 µM (inactive)
- GI50 (HOP-62): > 100 µM (inactive)
- GI50 (HT-29): > 100 µM (inactive)
- GI50 (NCI-H522): > 100 µM (inactive)
- GI50 (K562): > 100 µM (inactive)
- GI50 (SNB-19): > 100 µM (inactive)
- GI50 (UACC-62): > 100 µM (inactive)
- GI50 (SNB-78): > 100 µM (inactive)
- GI50 (COLO 205): > 100 µM (inactive)
- GI50 (NCI-H23): > 100 µM (inactive)

SMILES: C/N=C1\CC2c3cc(OC)c(OC)cc3CCN2C2=C1C(=O)CC(C)(C)C2 (centres undefined)
- GI50 (SK-MEL-28): > 100 µM (inactive)
- GI50 (ACHN): > 100 µM (inactive)
- GI50 (SK-MEL-5): > 100 µM (inactive)
- GI50 (SR): > 100 µM (inactive)
- GI50 (M19-MEL): > 100 µM (inactive)
- GI50 (HL-60): > 100 µM (inactive)
- GI50 (A549): > 100 µM (inactive)
- GI50 (HCT-116): > 100 µM (inactive)
- GI50 (SK-MEL-2): > 100 µM (inactive)
- GI50 (DMS-114): > 100 µM (inactive)
- GI50 (UACC-257): > 100 µM (inactive)
- GI50 (SF-268): > 100 µM (inactive)
- GI50 (HCC 2998): > 100 µM (inactive)
- GI50 (A498): > 100 µM (inactive)
- GI50 (CCRF-CEM): > 100 µM (inactive)
- GI50 (SNB-75): > 100 µM (inactive)
- GI50 (SN12C): > 100 µM (inactive)
- GI50 (MOLT-4): > 100 µM (inactive)
- GI50 (SF-539): > 100 µM (inactive)
- GI50 (OVCAR-8): > 100 µM (inactive)
- GI50 (786-0): > 100 µM (inactive)
- GI50 (OVCAR-3): > 100 µM (inactive)
- GI50 (KM-20L2): > 100 µM (inactive)
- GI50 (Malme-3M): > 100 µM (inactive)
- GI50 (SW-620): > 100 µM (inactive)
- GI50 (LXFL 529): > 100 µM (inactive)
- GI50 (NCI-H460): > 100 µM (inactive)
- GI50 (KM12): > 100 µM (inactive)
- GI50 (SF-295): > 100 µM (inactive)
- GI50 (EKVX): > 100 µM (inactive)
- GI50 (NCI-H226): > 100 µM (inactive)
- GI50 (HOP-92): > 100 µM (inactive)
- GI50 (RXF 393): > 100 µM (inactive)
- GI50 (U-251): > 100 µM (inactive)
- GI50 (UO-31): > 100 µM (inactive)
- GI50 (DMS-273): > 100 µM (inactive)
- GI50 (HT-29): > 100 µM (inactive)
- GI50 (NCI-H522): > 100 µM (inactive)
- GI50 (SNB-19): > 100 µM (inactive)
- GI50 (TK-10): > 100 µM (inactive)
- GI50 (SNB-78): > 100 µM (inactive)
- GI50 (DLD-1): > 100 µM (inactive)
- GI50 (COLO 205): > 100 µM (inactive)
- GI50 (NCI-H23): > 100 µM (inactive)
- GI50 (LOX IMVI): > 100 µM (inactive)
- GI50 (CAKI-1): > 100 µM (inactive)
- GI50 (OVCAR-5): > 100 µM (inactive)
- GI50 (HCT-15): > 10 µM
